Results from US20130209515A1, “ANTI-INFECTIVE AND IMMUNOMODULATORY COMPOUNDS” (priority 2005, published 2013).
“Also recorded” adds a separate entry of the source.

What was measured:
Assay type in all cases: cell-based, Pseudomonas aeruginosa
P. aeruginosa = P. aeruginosa growth kinetics (spectrophotometric analysis at 600 nm); details: 2 mM compound, followed over 26 hours at 600 nm (FIG. 4)
Text: P. aeruginosa strains include wild-type (PA14, see Rahme et al., Science 268:1899-1902, 1995); a PA14 mvfR mutant (Cao et al., Proc. Natl. Acad. Sci. USA 98:14613-14618, 2001); a pqsE deletion mutant, generated via pEX18Ap allelic replacement by using sucrose selection (Hoang et al., Gene 212:77-86, 1998), resulting in a 570-bp nonpolar deletion covering 65% of the sequence (Déziel et al. PNAS); and the pqsA (U479) TnphoA mutant obtained from the PA14 Transposon Insertion Mutant Database. Bacteria were grown in LB broth or on 1.5% Bacto-agar (Difco) LB plates. Freshly plated cells served as inoculum.
P. aeruginosa was grown in the presence of 2 mM of 2′-aminoacetophenone (2AA), 3′-aminoacetophenone (3AA), 4′-aminoacetophenone (4AA), or 2′-nitroacetophenone (2NA), or in the absence of any of these compounds (control). Bacterial growth was followed over 26 hours by spectrophotometric analysis at 600 nm.
Bacterial growth was also followed over 35 hours by spectrophotometric analysis at 600 nm.

[1] = tested on: pqsA-LacZ (MvfR-dependent pqs operon transcription); experiment: pqsA-LacZ expression (β-galactosidase activity)
Description: To assess the effect of this compound on bacteria, we analyzed the production of HAQs in the presence of 2AA using LC/MS. The bacteria were propagated in the presence of 3 mM 2AA, culture media was collected at different time points, and the HHQ, PQS and HQNO production was measured in the supernatant. […] Since 2AA addition to the P. aeruginosa culture inhibits the production of HHQ and PQS, we assessed the transcription from the pqs operon using a pqsA-LacZ fusion.
To further, understand the mechanism of inhibition of the pqs operon by 2AA, we carried out competition assays of PQS and HHQ with 2AA. The expression of pqsA-LacZ in pqsApqsH double mutants was assessed. Bacteria were grown to an OD600 of 1.0 and HHQ and PQS were added either alone or with 2AA. LacZ expression was assayed at different stages of the growth, using standard protocols.
To determine whether HHQ activates MvfR expression, we generated a PA14pqsH/pqsA double mutant that lacks all HAQ production, and assessed pqsA-lacZ activity in the absence and presence of HHQ and PQS.

P. aeruginosa cells = details: 3 mM 2AA
[2] = probable ATP-binding component of ABC transporter

SMILES: CC(=O)c1ccccc1N [2AA, 2′-aminoacetophenone]
- Bacterial growth (P. aeruginosa): only slightly retarded
- LacZ expression from pqsA-LacZ fusion ([1]; PA14, 3 mM 2AA (FIG. 14)): significant reduction
- pqsA expression (pqsA-LacZ) in response to HHQ ([1]; pqsApqsH double mutant, 3 mM 2AA with 1 mg/L HHQ): blocks pqsA expression
- pqsA expression (pqsA-LacZ) in response to PQS ([1]; pqsApqsH double mutant, 3 mM 2AA with 10 μl PQS): blocks pqsA expression; also recorded: inhibits pqsA expression at later time points
- genes whose expression was altered more than 2 fold (P. aeruginosa cells; harvested at OD600 of 3.0): approximately 1250 genes
- genes downregulated (P. aeruginosa cells; more than 2 fold): 1056 genes
- genes upregulated (P. aeruginosa cells; more than 2 fold): 199 genes
- FOLD CHANGE PA3569 (P. aeruginosa cells; 3-hydroxyisobutyrate dehydrogenase mmsB): −2.6 fold
- FOLD CHANGE PA0999 (P. aeruginosa cells; 3-oxoacyl-[acyl-carrier-protein] synthase III pqsD): −5.2 fold
- FOLD CHANGE PA2570 (P. aeruginosa cells; PA-I galactophilic lectin): −4.5 fold
- FOLD CHANGE PA1001 (P. aeruginosa cells; anthranilate synthase component I, phnA): −6.2 fold
- FOLD CHANGE PA1002 (P. aeruginosa cells; anthranilate synthase component II, phnB): −4.9 fold
- FOLD CHANGE PA0905 (P. aeruginosa cells; carbon storage regulator csrA): −2.7 fold
- FOLD CHANGE PA1457 (P. aeruginosa cells; chemotaxis protein CheZ): −2.1 fold
- FOLD CHANGE PA2300 (P. aeruginosa cells; chitinase): −3.2 fold
- FOLD CHANGE PA0122 (P. aeruginosa cells; conserved hypothetical protein): −3.4 fold
- FOLD CHANGE PA0567 (P. aeruginosa cells; conserved hypothetical protein): −3.0 fold
- FOLD CHANGE PA1914 (P. aeruginosa cells; conserved hypothetical protein): −26.3 fold
- FOLD CHANGE PA2754 (P. aeruginosa cells; conserved hypothetical protein): −2.0 fold
- FOLD CHANGE PA4739 (P. aeruginosa cells; conserved hypothetical protein): −3.7 fold
- FOLD CHANGE PA3105 (P. aeruginosa cells; general secretion pathway protein D): −2.2 fold
- FOLD CHANGE PA3101 (P. aeruginosa cells; general secretion pathway protein G): −3.4 fold
- FOLD CHANGE PA3100 (P. aeruginosa cells; general secretion pathway protein H): −2.1 fold
- FOLD CHANGE PA3099 (P. aeruginosa cells; general secretion pathway protein I): −2.2 fold
- FOLD CHANGE PA3098 (P. aeruginosa cells; general secretion pathway protein J): −2.2 fold
- FOLD CHANGE PA3096 (P. aeruginosa cells; general secretion pathway protein L): −2.8 fold
- FOLD CHANGE PA3195 (P. aeruginosa cells; glyceraldehyde 3-phosphate dehydrogenase): −3.2 fold
- FOLD CHANGE PA3126 (P. aeruginosa cells; heat-shock protein IbpA): −2.5 fold
- FOLD CHANGE PA2194 (P. aeruginosa cells; hydrogen cyanide synthase HcnB): −3.5 fold
- FOLD CHANGE PA2195 (P. aeruginosa cells; hydrogen cyanide synthase HcnC): −2.9 fold
- FOLD CHANGE PA4205 (P. aeruginosa cells; hypothetical protein MexG): −6.1 fold
- FOLD CHANGE PA0997 (P. aeruginosa cells; hypothetical protein pqsB): −4.6 fold
- FOLD CHANGE PA0998 (P. aeruginosa cells; hypothetical protein pqsC): −5.4 fold
- FOLD CHANGE PA1000 (P. aeruginosa cells; hypothetical protein pqsE): −4.3 fold
- FOLD CHANGE PA1216 (P. aeruginosa cells; hypothetical protein): −2.7 fold
- FOLD CHANGE PA1852 (P. aeruginosa cells; hypothetical protein): −2.3 fold
- FOLD CHANGE PA2031 (P. aeruginosa cells; hypothetical protein): −2.0 fold
- FOLD CHANGE PA2134 (P. aeruginosa cells; hypothetical protein): −2.5 fold
- FOLD CHANGE PA2172 (P. aeruginosa cells; hypothetical protein): −2.4 fold
- FOLD CHANGE PA2173 (P. aeruginosa cells; hypothetical protein): −2.3 fold
- FOLD CHANGE PA2274 (P. aeruginosa cells; hypothetical protein): −3.7 fold
- FOLD CHANGE PA2328 (P. aeruginosa cells; hypothetical protein): −4.5 fold
- FOLD CHANGE PA2330 (P. aeruginosa cells; hypothetical protein): −11.7 fold
- FOLD CHANGE PA2331 (P. aeruginosa cells; hypothetical protein): −10.9 fold
- FOLD CHANGE PA2486 (P. aeruginosa cells; hypothetical protein): −2.3 fold
- FOLD CHANGE PA3031 (P. aeruginosa cells; hypothetical protein): −3.1 fold
- FOLD CHANGE PA3370 (P. aeruginosa cells; hypothetical protein): −2.2 fold
- FOLD CHANGE PA3371 (P. aeruginosa cells; hypothetical protein): −2.1 fold
- FOLD CHANGE PA3691 (P. aeruginosa cells; hypothetical protein): −7.0 fold
- FOLD CHANGE PA4917 (P. aeruginosa cells; hypothetical protein): −2.1 fold
- FOLD CHANGE PA3570 (P. aeruginosa cells; methylmalonate-semialdehyde dehydrogenase): −2.9 fold
- FOLD CHANGE PA4876 (P. aeruginosa cells; osmotically inducible lipoprotein OsmE): −2.6 fold
- FOLD CHANGE PA3186 (P. aeruginosa cells; outer membrane porin OprB precursor): −2.2 fold
- FOLD CHANGE PA1901 (P. aeruginosa cells; phenazine biosynthesis protein PhzC): −3.4 fold
- FOLD CHANGE PA1902 (P. aeruginosa cells; phenazine biosynthesis protein PhzD): −3.4 fold
- FOLD CHANGE PA1903 (P. aeruginosa cells; phenazine biosynthesis protein PhzE): −3.1 fold
- FOLD CHANGE PA2329 (P. aeruginosa cells; [2]): −9.8 fold
- FOLD CHANGE PA3187 (P. aeruginosa cells; [2]): −2.6 fold
- FOLD CHANGE PA4217 (P. aeruginosa cells; probable FAD-dependent monooxygenase phzS1): −5.4 fold
- FOLD CHANGE PA4209 (P. aeruginosa cells; probable O-methyltransferase phzM): −2.4 fold
- FOLD CHANGE PA4206 (P. aeruginosa cells; probable RND efflux membrane fusion protein precursor mexH): −5.9 fold
- FOLD CHANGE PA4207 (P. aeruginosa cells; probable RND efflux transporter mexI): −7.5 fold
- FOLD CHANGE PA2069 (P. aeruginosa cells; probable carbamoyl transferase): −2.5 fold
- FOLD CHANGE PA0996 (P. aeruginosa cells; probable coenzyme A ligase pqsA): −3.0 fold
- FOLD CHANGE PA2204 (P. aeruginosa cells; probable component of ABC transporter): −3.1 fold
- FOLD CHANGE PA2067 (P. aeruginosa cells; probable hydrolase): −2.5 fold
- FOLD CHANGE PA3812 (P. aeruginosa cells; probable iron-binding protein IscA): −5.9 fold
- FOLD CHANGE PA3813 (P. aeruginosa cells; probable iron-binding protein IscU): −6.7 fold
- FOLD CHANGE PA4208 (P. aeruginosa cells; probable outer membrane efflux protein precursor, OpmD): −6.8 fold
- FOLD CHANGE PA3692 (P. aeruginosa cells; probable outer membrane protein): −4.7 fold
- FOLD CHANGE PA3189 (P. aeruginosa cells; probable permease of ABC sugar transporter): −2.0 fold
- FOLD CHANGE PA2327 (P. aeruginosa cells; probable permease of ABC transporter): −4.9 fold
- FOLD CHANGE PA4210 (P. aeruginosa cells; probable phenazine biosynthesis protein phzA1): −3.3 fold
- FOLD CHANGE PA4211 (P. aeruginosa cells; probable phenazine biosynthesis protein phzB1): −2.9 fold
- FOLD CHANGE PA1904 (P. aeruginosa cells; probable phenazine biosynthesis protein): −3.6 fold
- FOLD CHANGE PA1905 (P. aeruginosa cells; probable pyridoxamine 5′-phosphate oxidase): −3.4 fold
- FOLD CHANGE PA4218 (P. aeruginosa cells; probable transporter): −5.3 fold
- FOLD CHANGE PA0355 (P. aeruginosa cells; protease pfpI): −2.7 fold
- FOLD CHANGE PA1456 (P. aeruginosa cells; two-component response regulator CheY): −2.3 fold
